Results: patent publication US20240018119A1, “CARBOXAMIDE DERIVATIVE AND PHARMACEUTICAL COMPOSITION COMPRISING SAME AS ACTIVE INGREDIENT FOR PREVENTING OR TREATING MENTAL ILLNESS” (DAEGU-GYEONGBUK MEDICAL INNOVATION FOUNDATION, priority 2020, published 2024)

Key:
Type in all cases: cell-based
[1] = biological target: T1, serotonin transporter (Homo sapiens, UniProt P31645); assay: Serotonin reuptake inhibition in transporter-transfected HEK-293 cells ([3H]-5-HT); settings: for Triple reuptake inhibition (Ratio %) SERT: compound 1 μM, [3H]-5-HT, relative to control without compound (100%), lower = more inhibition; for IC50: concentration at which Ratio % is 50%, 6 concentrations 1 nM to 1 μM, read-out: Triple reuptake inhibition (IC50, μM) SERT
T1 construct: expressed in transfected cells; host or cells: HEK-293
Description: (§1) To evaluate the reuptake inhibitory effect on dopamine, the dopamine transporter cDNA was transfected using the HEK-293 cell line, and then sub-seeded in a 24 well plate the next day. After removing the medium, each compound of the Examples or Comparative Examples diluted to 1 μM in uptake buffer was added to a concentration of 200 μl/well and cultured at 37° C. for 15 minutes. 100 μl of uptake buffer containing 20-30 nM [3H]-DA was added and cultured at 37° C. for 5 minutes. The reaction solution was quickly removed and washed three times with 1 ml ice-cold uptake buffer. After dissolving the resultant in 1% SDS (0.5 ml), the degree of binding of radioisotope-labeled dopamine to the transporter was measured.
(§2) For norepinephrine (NE) and serotonin (5-HT), the degree of binding of radioisotope-labeled norepinephrine or serotonin to the transporter was measured in the same manner as above, except that cells transfected with NE or 5-HT transporter cDNA were used and [3H]-NE or [3H]-5-HT was used as a substrate.
(§3) In addition, when evaluating the reuptake inhibitory effect on dopamine, norepinephrine, and serotonin, the same method was performed without treating each compound of the Examples or Comparative Examples as a control, the degree of binding of radioisotope-labeled dopamine, norepinephrine, and serotonin to the transporter was measured, and by using this as a standard (100%), the triple reuptake inhibitory effect was evaluated as a relative ratio (Ratio %). That is, in the control group, the binding of dopamine, norepinephrine, and serotonin to transporters is not inhibited, but when each compound of the Examples is treated and thus the binding is inhibited, the Patio % value decreases.
In addition, in the case of the compound of Comparative Example 1, IC50 was obtained by the same method as the Example Compounds.

[2] = biological target: T2, norepinephrine transporter (Homo sapiens, UniProt P23975); assay: Norepinephrine reuptake inhibition in transporter-transfected HEK-293 cells ([3H]-NE); settings: for Triple reuptake inhibition (Ratio %) NET: compound 1 μM, [3H]-NE, relative to control without compound (100%), lower = more inhibition; for IC50: concentration at which Ratio % is 50%, 6 concentrations 1 nM to 1 μM, read-out: Triple reuptake inhibition (IC50, μM) NET
T2 construct: expressed in transfected cells; host or cells: HEK-293
Description: as §1, §2, §3
(§4) Meanwhile, the Patio % values were compared, and in the case of the compounds of Examples 6, 9, 10, 19, 20, 22, 24, 28, 30, 31, 32, 33, 35, 41, 42, 48, 49, 51, 55, 56, 59, 61, 63, 64, 65, 66, 74 and 76 with excellent reuptake inhibitory effects on dopamine, norepinephrine and serotonin, the concentration at which the Ratio % is 50% was calculated using a total of 6 concentrations (1 nM, 5 nM, 10 nM, 50 nM, 100 nM, and 1 μM) and expressed as IC50. In addition, in the case of the compound of Comparative Example 1, IC50 was obtained by the same method as the Example Compounds.

[3] = biological target: T3, dopamine transporter (Homo sapiens, UniProt Q01959); assay: Dopamine reuptake inhibition in transporter-transfected HEK-293 cells ([3H]-DA); settings: for Triple reuptake inhibition (Ratio %) DAT: compound 1 μM, 20-30 nM [3H]-DA, relative to control without compound (100%), lower = more inhibition; for IC50: concentration at which Ratio % is 50%, 6 concentrations 1 nM to 1 μM, read-out: Triple reuptake inhibition (IC50, μM) DAT
T3 construct: expressed in transfected cells; host or cells: HEK-293
Description: as §1, §3, §4

T3 sequence (Q01959 whole entry): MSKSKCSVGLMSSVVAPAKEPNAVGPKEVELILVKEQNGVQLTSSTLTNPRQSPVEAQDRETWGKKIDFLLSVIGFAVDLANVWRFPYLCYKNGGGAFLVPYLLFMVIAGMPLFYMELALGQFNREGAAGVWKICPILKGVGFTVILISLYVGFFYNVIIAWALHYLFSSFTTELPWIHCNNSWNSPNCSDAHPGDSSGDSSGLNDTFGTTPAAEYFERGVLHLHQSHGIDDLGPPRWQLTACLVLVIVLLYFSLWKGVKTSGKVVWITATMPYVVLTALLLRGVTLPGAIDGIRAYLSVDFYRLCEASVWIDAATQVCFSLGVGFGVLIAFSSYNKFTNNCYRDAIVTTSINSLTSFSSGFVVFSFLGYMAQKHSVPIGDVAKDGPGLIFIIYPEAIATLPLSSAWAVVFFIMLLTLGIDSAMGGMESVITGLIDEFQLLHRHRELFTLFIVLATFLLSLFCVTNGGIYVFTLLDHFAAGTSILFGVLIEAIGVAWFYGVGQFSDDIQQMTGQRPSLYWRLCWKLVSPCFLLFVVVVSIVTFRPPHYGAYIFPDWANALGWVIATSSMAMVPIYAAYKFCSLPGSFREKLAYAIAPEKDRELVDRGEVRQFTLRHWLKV
T2 sequence (P23975 whole entry, species assumed): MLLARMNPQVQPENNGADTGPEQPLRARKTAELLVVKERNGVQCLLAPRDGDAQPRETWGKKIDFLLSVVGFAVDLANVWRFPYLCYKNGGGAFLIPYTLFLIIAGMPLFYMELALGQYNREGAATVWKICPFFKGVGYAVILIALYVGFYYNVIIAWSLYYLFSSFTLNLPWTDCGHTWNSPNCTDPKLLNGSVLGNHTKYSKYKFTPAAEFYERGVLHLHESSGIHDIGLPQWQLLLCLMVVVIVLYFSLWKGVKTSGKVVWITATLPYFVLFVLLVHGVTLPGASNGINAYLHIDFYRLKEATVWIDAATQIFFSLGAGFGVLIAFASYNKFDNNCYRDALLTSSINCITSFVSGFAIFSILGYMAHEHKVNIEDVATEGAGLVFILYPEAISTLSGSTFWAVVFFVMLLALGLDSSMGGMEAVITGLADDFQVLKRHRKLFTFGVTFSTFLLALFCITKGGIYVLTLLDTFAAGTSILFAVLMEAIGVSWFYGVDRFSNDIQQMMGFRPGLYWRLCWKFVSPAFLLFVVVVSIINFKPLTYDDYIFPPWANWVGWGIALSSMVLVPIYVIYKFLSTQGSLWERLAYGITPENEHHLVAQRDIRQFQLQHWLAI
T1 sequence (P31645 whole entry): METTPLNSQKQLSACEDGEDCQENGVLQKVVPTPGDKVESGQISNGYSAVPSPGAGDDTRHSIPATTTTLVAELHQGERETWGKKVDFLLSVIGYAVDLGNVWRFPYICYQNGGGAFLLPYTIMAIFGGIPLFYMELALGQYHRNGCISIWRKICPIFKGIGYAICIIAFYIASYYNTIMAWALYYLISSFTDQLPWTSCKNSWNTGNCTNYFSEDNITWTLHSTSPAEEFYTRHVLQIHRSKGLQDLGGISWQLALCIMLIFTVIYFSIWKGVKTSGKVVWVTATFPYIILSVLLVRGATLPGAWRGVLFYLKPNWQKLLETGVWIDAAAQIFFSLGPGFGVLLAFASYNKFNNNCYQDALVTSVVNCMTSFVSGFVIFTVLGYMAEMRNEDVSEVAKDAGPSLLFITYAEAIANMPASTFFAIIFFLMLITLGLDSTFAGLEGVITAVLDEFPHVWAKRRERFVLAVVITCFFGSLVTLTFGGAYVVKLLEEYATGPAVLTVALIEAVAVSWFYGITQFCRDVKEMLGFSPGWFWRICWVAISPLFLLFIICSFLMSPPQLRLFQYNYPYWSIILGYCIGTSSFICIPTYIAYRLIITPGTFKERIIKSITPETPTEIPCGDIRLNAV

| Compound | Triple reuptake inhibition (Ratio %) SERT [1] [%] | IC50 [1] [µM] | Triple reuptake inhibition (Ratio %) NET [2] [%] | Triple reuptake inhibition (Ratio %) DAT [3] [%] | IC50 [3] [µM] | IC50 [2] [µM] |
| --- | --- | --- | --- | --- | --- | --- |
| O=C(c1cc2ccccc2[nH]1)N1CCC(Cc2ccccc2)CC1 [Example 26, (4-benzylpiperidin-1-yl) (1H-indol-2-yl)methanone] | 113.81 | – | 92.07 | 124.32 | – | – |
| O=C(NCCN1CCC(Cc2ccc(F)c(F)c2)CC1)c1cc2ccccc2[nH]1 [Example 27, N-(2-(4-(3,4-difluorobenzyl)piperidin-1-yl)ethyl)-1H-indol-2-carboxamide] | 75.39 | – | 69.72 | 71.77 | – | – |
| O=C(NCCN1CCC(c2ccc(Cl)c(Cl)c2)CC1)c1cc2ccccc2[nH]1 [Example 28, N-(2-(4-(3,4-dichlorophenyl)piperidin-1-yl)ethyl)-1H-indol-2-carb oxamide] | 82.81 | – | 88.77 | 37.16 | 0.225 | – |
| O=C(NCCN1CCN(CC2CCOCC2)CC1)c1cc2ccccc2[nH]1 [Example 29, N-(2-(4-((tetrahydro-2H-pyran-4-yl)methyl)piperazin-1-yl)ethyl)-1H-indol-2-carboxamide] | 94.24 | – | 97.94 | 113.83 | – | – |
| O=C(NCCN1CCC(Cc2ccccc2)CC1)c1cc2cc(Br)ccc2[nH]1 [Example 30, N-(2-(4-benzylpiperidin-1-yl)ethyl)-5-bromo-1H-indol-2-carboxamide] | 75.29 | – | 94.09 | 49.44 | 0.984 | 7.91 |
| O=C(NCCN1CCC(Cc2ccccc2)CC1)c1cc2cc(F)c(F)cc2[nH]1 [Example 32, N-(2-(4-benzylpiperidin-1-yl)ethyl)-5,6-difluoro-1H-indol-2-carboxamide] | 54.81 | 2.04 | 66.78 | 28.03 | 0.824 | 1.47 |
| COc1ccc2[nH]c(C(=O)NCCN3CCC(Cc4ccccc4)CC3)cc2c1 [Example 33, N-(2-(4-benzylpiperidin-1-yl)ethyl)-5-methoxy-1H-indol-2-carboxamide] | 48.73 | 1.33 | 65.51 | 25.55 | 0.331 | 1.7 |
| CC(C)(CN1CCC(Cc2ccccc2)CC1)NC(=O)c1cc2ccccc2[nH]1 [Example 34, N-(1-(4-benzylpiperidin-1-yl)-2-methylpropan-2-yl)-1H-indol-2-carboxamide] | 90.64 | – | 70.66 | 55.54 | – | – |
| O=C(NCCN1CCC(Cc2ccccc2)CC1)c1cc2c(Cl)cc(Cl)cc2[nH]1 [Example 39, N-(2-(4-benzylpiperidin-1-yl)ethyl)-4,6-dichloro-1H-indol-2-carboxamide] | 76.27 | – | 63.99 | 40.9 | – | – |
| O=C(NCCN1CCC(Cc2ccccc2)CC1)c1cc2cc(C(F)(F)F)ccc2[nH]1 [Example 40, N-(2-(4-benzylpiperidin-1-yl)ethyl)-5-(trifluoromethyl)-1H-indol-2-carboxamide] | 92.65 | – | 59.50 | 35.13 | – | – |
| N#Cc1ccc2[nH]c(C(=O)NCCN3CCC(Cc4ccccc4)CC3)cc2c1 [Example 41, N-(2-(4-benzylpiperidin-1-yl)ethyl)-5-cyano-1H-indol-2-carboxamide] | 48.50 | 0.525 | 31.85 | 12.3 | 0.171 | 0.371 |

The next lines start with the values.

| Triple reuptake inhibition (Ratio %) SERT [1] [%] | IC50 [1] [µM] | Triple reuptake inhibition (Ratio %) NET [2] [%] | Triple reuptake inhibition (Ratio %) DAT [3] [%] | IC50 [3] [µM] | IC50 [2] [µM] | Compound |
| --- | --- | --- | --- | --- | --- | --- |
| 52.47 | > 10 | 91.21 | 63.72 | – | – | O=C(NCCN1CCN(Cc2ccc(Cl)c(Cl)c2)CC1)c1cc2ccccc2[nH]1 [Example 22, N-(2-(4-(3,4-dichlorobenzyl)piperazin-1-yl)ethyl)-1H-indol-2-carboxamide] |
| 85.13 | – | 99.59 | 70.42 | – | – | O=C(NCCN1CCN(c2cccc(Cl)c2Cl)CC1)c1cc2ccccc2[nH]1 [Example 23, N-(2-(4-(2,3-dichlorophenyl)piperazin-1-yl)ethyl)-1H-indol-2-carboxamide] |
| 59.92 | > 10 | 107.75 | 43.28 | 8.03 | – | O=C(NCCN1CCN(c2ccc(Cl)c(Cl)c2)CC1)c1cc2ccccc2[nH]1 [Example 24, N-(2-(4-(3,4-dichlorophenyl)piperazin-1-yl)ethyl)-1H-indol-2-carboxamide] |
| 97.46 | – | 76.45 | 76.50 | – | – | O=C(NCCN1CCN(Cc2ccccc2)CC1)c1cc2ccccc2[nH]1 [Example 25, N-(2-(4-benzylpiperazin-1-yl)ethyl)-1H-indol-2-carboxamide] |
| 58.09 | – | 72.60 | 31.52 | 1.73 | 4.35 | O=C(NCCN1CCC(Cc2ccccc2)CC1)c1cc2cc(Cl)ccc2[nH]1 [Example 31, N-(2-(4-benzylpiperidin-1-yl)ethyl)-5-chloro-1H-indol-2-carboxamide] |
| 111.92 | – | 90.99 | 84.74 | – | – | O=C(NCCN1CCC(C(O)c2ccccc2)CC1)c1cc2ccccc2[nH]1 (centres unmarked) [Example 36, N-(2-(4-(hydroxy(phenyl)methyl)piperidin-1-yl)ethyl)-1H-indol-2-carboxamide] |
| 32.42 | – | 76.15 | 38.64 | – | – | O=C(NCCN1CCC(c2c[nH]c3ccccc23)CC1)c1cc2ccccc2[nH]1 [Example 37, N-(2-(4-(1H-indol-3-yl)piperidin-1-yl)ethyl)-1H-indol-2-carboxamide] |
| 70.46 | – | 70.02 | 43.94 | – | – | O=C(NCCN1CCCC(Cc2ccccc2)C1)c1cc2ccccc2[nH]1 (centres unmarked) [Example 38, N-(2-(3-benzylpiperidin-1-yl)ethyl)-1H-indol-2-carboxamide] |
